The source of these data is US20120065187A1 (ALCON RESEARCH, LTD, priority 2008, published 2012).

Structures are written as SMILES.

Assay [1] concerns the target T1, human H4 (Homo sapiens, UniProt Q9H3N8).
T1 construct: host or cells: CHO-K1
Nature of the assay: In vitro histamine receptor cell-based assay (aequorin bioluminescence), H4 antagonism. To be noted: CHO-K1 cells expressing human H4, aequorin and Gα16; histamine at EC80; read-out: H4 Antagonist EC50. The gist of the method:
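CHO-K1 cells stably expressing human H4, Gα16 and mitochondrial aequorin, loaded with 5 μM coelenterazine-h, preincubated 15 min at room temperature with compound, then challenged with histamine at EC80.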

Assay [2] has as its system Hartley VAF outbred guinea pigs. Briefly: Allergic conjunctivitis in passively sensitized guinea pigs (conjunctival EPO activity). The format is in vivo. Further details: key: +: a 0.01% bid dose was statistically equivalent to dexamethasone with respect to reduction of EPO activity; −: the compound was statistically inferior to dexamethasone and not different than vehicle. The conditions noted are these: reduction of conjunctival EPO activity vs dexamethasone; for BID activity: 0.01% bid topical, 1 hour prior to and 8 hours after ovalbumin challenge; for QD activity: ≦0.1% qd topical, 1 hour prior to ovalbumin challenge. The method, then:
Male Hartley VAF outbred guinea pigs were passively sensitized to ovalbumin by a single OD subconjunctival injection of undiluted guinea pig anti-ovalbumin antiserum 24 hours before OD topical challenge with 500 μg ovalbumin in saline. Control animals were injected with saline only and challenged with ovalbumin. To determine acute phase drug efficacy, 30 min after challenge animals were clinically scored by a masked observer for severity of signs of conjunctivitis based on a standard scale. Test compounds were administered topically 1 hour prior to challenge (QD protocol), or 1 hour prior to challenge and again 8 hours after challenge (BID protocol). Twenty-four hours after challenge, animals were euthanized and conjunctivae were harvested for determination of tissue eosinophil peroxidase (EPO) concentration as a marker of allergic inflammation. Homogenates of freshly collected tissues were prepared by shaking the tissues in 2 mL round-bottom tubes containing 0.5 mL of homogenization buffer (50 mM Tris HCl, pH 8.0, 6 mM KBr) and one 5-mm stainless steel bead on a Qiagen TissueLyser at 30 Hz for 5 min. Homogenates were frozen and thawed once, then centrifuged at 10,000 rpm for 5 min. EPO activity in supernatants was measured by reacting diluted homogenates with a solution of 6 mM o-phenylenediamine substrate and 8.8 mM H2O2 in homogenization buffer for 3 min. The reaction was stopped with 4M H2SO4 and absorbances were measured at […] on a spectrophotometric plate reader. Total EPO in samples was calculated from a standard curve of recombinant human EPO in each assay. EPO activity was normalized to total protein concentration (Pierce BCA assay) in supernatants. Background EPO activity was determined from the unsensitized, antigen-challenged control group. Percent inhibition was calculated from the sensitized, antigen-challenged, vehicle-treated control group in each experiment. Ovalbumin-injected animals dosed topically with 0.1% w/v dexamethasone (dex) served as positive control. Groups were compared by ANOVA with Dunnett's or Tukey's post-hoc tests where appropriate with significance assigned at the 95% confidence level.
The table below summarizes the results.

Assay [3] deals with T2, human H1 (Homo sapiens, UniProt P35367).
T2 construct: host or cells: CHO-K1
T2 sequence (P35367 whole entry): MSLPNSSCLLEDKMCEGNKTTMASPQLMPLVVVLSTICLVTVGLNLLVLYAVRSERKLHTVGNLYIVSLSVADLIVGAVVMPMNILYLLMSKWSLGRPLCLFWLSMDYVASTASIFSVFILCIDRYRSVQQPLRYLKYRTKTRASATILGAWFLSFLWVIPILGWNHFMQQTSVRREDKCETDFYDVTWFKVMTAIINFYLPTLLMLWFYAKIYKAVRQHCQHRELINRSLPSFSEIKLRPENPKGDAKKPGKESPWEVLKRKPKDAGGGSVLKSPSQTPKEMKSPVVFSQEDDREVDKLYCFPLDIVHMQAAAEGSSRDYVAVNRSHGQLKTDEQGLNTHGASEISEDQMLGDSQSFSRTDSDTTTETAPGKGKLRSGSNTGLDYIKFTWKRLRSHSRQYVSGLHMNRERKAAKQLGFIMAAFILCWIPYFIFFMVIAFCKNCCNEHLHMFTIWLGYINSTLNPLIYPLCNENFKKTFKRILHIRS
Briefly: In vitro histamine receptor cell-based assay (aequorin bioluminescence), H1 antagonism. The conditions noted are these: CHO-K1 cells expressing human H1 and aequorin; histamine at EC80; read-out: H1 Antagonist EC50. An outline of the steps: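 Stable CHO-K1 lines expressing human H1 or H4 (H4 with Gα16) plus mitochondrial aequorin, loaded 4 h with 5 μM coelenterazine-h at ~21 °C. Compounds preincubated 15 min, then histamine at EC80 added; bioluminescence decrease (AUC or max–min) expressed as % of positive control (diphenhydramine for H1, JNJ7777120 for H4, 10 μM).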

T1 sequence (Q9H3N8 whole entry): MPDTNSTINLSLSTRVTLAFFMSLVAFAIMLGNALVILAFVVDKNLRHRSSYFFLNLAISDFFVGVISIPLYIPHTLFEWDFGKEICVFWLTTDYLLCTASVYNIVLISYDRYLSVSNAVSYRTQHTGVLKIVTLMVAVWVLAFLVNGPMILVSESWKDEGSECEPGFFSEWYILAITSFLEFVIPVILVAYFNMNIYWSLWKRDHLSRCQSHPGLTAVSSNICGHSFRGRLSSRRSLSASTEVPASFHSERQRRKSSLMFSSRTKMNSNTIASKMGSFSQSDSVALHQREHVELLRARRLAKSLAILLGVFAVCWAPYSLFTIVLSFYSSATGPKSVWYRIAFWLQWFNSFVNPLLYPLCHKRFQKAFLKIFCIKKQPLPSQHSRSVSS

Consider `CN1CCN(c2nc3ccc(Cl)cc3n3ccnc23)CC1` [Example 7, 8-Chloro-4-(4-methylpiperazin-1-yl)imidazo[1,2-a]quinoxaline], for which the EC50 (in general, the concentration needed to bring the measured effect to its halfway point) is below 10 µM in assay [1] and above 10 µM in assay [3]. Further, the BID activity result in assay [2] was “−”.

On to `Cc1ccc2nc(N3CCN(C)CC3)c3nncn3c2c1` [Example 21, 8-Methyl-4-(4-methylpiperazin-1-yl)-[1,2,4]triazolo[4,3-a]quinoxaline], for which the values for the EC50 in assay [1] and in assay [3] were below 10 µM and above 10 µM, respectively. Further, the BID activity result in assay [2] is recorded as “−”.

With `CN1CCN(c2nc3ccc(C(F)(F)F)cc3n3cnnc23)CC1` [Example 23, 4-(4-methylpiperazin-1-yl)-8-(trifluoromethyl)-[1,2,4]triazolo[4,3-a]quinoxaline], the values for the EC50 in assay [1] and in assay [3] were below 10 µM and above 10 µM, respectively. The BID activity result in assay [2] is recorded as “+”.

As to `CN1CCN(c2nc3ccc(C(F)(F)F)cc3n3nnnc23)CC1` [Example 27, 4-(4-methylpiperazin-1-yl)-8-(trifluoromethyl)tetrazolo[1,5-a]quinoxaline], the EC50 in assay [1] is below 10 µM; in assay [3] it was above 10 µM. In addition, the QD activity result in assay [2] was “−”.

For the compound `CN1CCN(c2nc3cc(F)c(Cl)cc3n3cnnc23)CC1` [Example 31, 8-chloro-7-fluoro-4-(4-methylpiperazin-1-yl)-[1,2,4]triazolo[4,3-a]quinoxaline], the EC50 was below 10 µM in assay [1] and above 10 µM in assay [3]. Further, in assay [2], the QD activity result is “−”.

For `Fc1cc2nc(N3CCNCC3)c3nncn3c2cc1Cl` [Example 32, 8-chloro-7-fluoro-4-(piperazin-1-yl)-[1,2,4]triazolo[4,3-a]quinoxaline], the EC50 is below 10 µM in assay [1] and above 10 µM in assay [3]. Further, the BID activity entry in assay [2] is recorded as “+”.

On to `CN1CCN(c2nc3cc(F)c(F)cc3n3cnnc23)CC1` [Example 37, 7,8-difluoro-4-(4-methylpiperazin-1-yl)-[1,2,4]triazolo[4,3-a]quinoxaline], for which the EC50 was below 10 µM in assay [1] and above 10 µM in assay [3]. Besides, the BID activity result in assay [2] is on record as “+”.

As for `CN1CCN(c2nc3cc(Cl)c(Cl)cc3n3cnnc23)CC1` [Example 39, 7,8-dichloro-4-(4-methylpiperazin-1-yl)-[1,2,4]triazolo[4,3-a]quinoxaline], the EC50 in assay [1] is below 10 µM; in assay [3], above 10 µM. Further, the BID activity entry in assay [2] is on record as “+”.

As to `Fc1cc2nc(N3CCNCC3)c3nncn3c2cc1C(F)(F)F` [Example 41, 7-Fluoro-4-(piperazin-1-yl)-8-(trifluoromethyl)-[1,2,4]triazolo[4,3-a]quinoxaline], the EC50 is below 10 µM in assay [1] and above 10 µM in assay [3]. Further, the QD activity entry in assay [2] is on record as “−”.

Consider `Fc1cc(C(F)(F)F)cc2c1nc(N1CCNCC1)c1nncn12` [Example 49, 6-Fluoro-4-(piperazin-1-yl)-8-(trifluoromethyl)-[1,2,4]triazolo[4,3-a]quinoxaline], for which the EC50 in assay [1] is below 10 µM; in assay [3], above 10 µM. For the same compound, the QD activity result in assay [2] was “−”.

Turning to `Brc1ccc2nc(N3CCNCC3)c3nncn3c2c1` [Example 52, 8-bromo-4-(piperazin-1-yl)-[1,2,4]triazolo[4,3-a]quinoxaline], the results for the EC50 in assay [1] and in assay [3] were below 10 µM and above 10 µM, respectively. Besides, the QD activity result in assay [2] was “−”.

In the case of `CN1CCN(c2nc3ccc(Br)cc3n3cnnc23)CC1` [Example 54, 8-bromo-4-(4-methylpiperazin-1-yl)-[1,2,4]triazolo[4,3-a]quinoxaline], the EC50 in assay [1] was below 10 µM; in assay [3], above 10 µM. Also, the QD activity result in assay [2] is “−”.

For the compound `Clc1ccc2nc(N3CCCNCC3)c3nncn3c2c1` [Example 66, 8-chloro-4-(1,4-diazepan-1-yl)-[1,2,4]triazolo[4,3-a]quinoxaline], the EC50 is below 10 µM in assay [1] and above 10 µM in assay [3]. In addition, the QD activity entry in assay [2] is reported as “−”.

Consider `Cc1nc2c3cc(Cl)c(F)cc3nc(N3CCN(C)CC3)n2n1` [Example 95, 9-Chloro-8-fluoro-2-methyl-5-(4-methylpiperazin-1-yl)-[1,2,4]triazolo[1,5-c]quinazoline], for which the results for the EC50 in assay [1] and in assay [3] were below 10 µM and above 10 µM, respectively. In addition, the BID activity result in assay [2] is “−”.

For the compound `Cc1ccc2nc(N3CCN(C)CC3)n3nc(C)nc3c2c1` [Example 99, 2,9-Dimethyl-5-(4-methylpiperazin-1-yl)-[1,2,4]triazolo[1,5-c]quinazoline], the EC50 in assay [1] was below 10 µM. For the same compound, in assay [2], the BID activity result is listed as “+” and the QD activity result is “−”. In addition, in assay [3], the EC50 is above 10 µM.

As to `Cc1nc2c3cc(C(F)(F)F)ccc3nc(N3CCNCC3)n2n1` [Example 104, 2-Methyl-5-(piperazin-1-yl)-9-(trifluoromethyl)-[1,2,4]triazolo[1,5-c]quinazoline], the EC50 in assay [1] is below 10 µM; in assay [3] it was above 10 µM. Besides, in assay [2], the QD activity entry is given as “−”.

Consider `Cc1nc2c3ccc(C(F)(F)F)cc3nc(N3CCN(C)CC3)n2n1` [Example 109, 2-Methyl-5-(4-methylpiperazin-1-yl)-8-(trifluoromethyl)-[1,2,4]triazolo[1,5-c]quinazoline], for which the EC50 in assay [1] is below 10 µM; in assay [3], above 10 µM. In assay [2], the BID activity entry was “−”.

In the case of `CN1CCN(c2nc3ccc(C(F)(F)F)cc3c3conc23)CC1` [Example 218, 4-(4-methylpiperazin-1-yl)-8-(trifluoromethyl)isoxazolo[3,4-c]quinoline], the EC50 in assay [1] is below 10 µM; in assay [3] it was above 10 µM.

`CN1CCN(c2nc3cc(C(F)(F)F)ccc3c3conc23)CC1` [Example 220, 4-(4-Methylpiperazinyl)-7-(trifluoromethyl)isoxazolo[3,4-c]quinoline]: the values for the EC50 in assay [1] and in assay [3] were below 10 µM and above 10 µM, respectively.

Consider `CN1CCN(c2nc3ccc(Br)cc3c3conc23)CC1` [Example 222, 8-bromo-4-(4-methylpiperazin-1-yl)isoxazolo[3,4-c]quinoline], for which the EC50 in assay [1] was below 10 µM; in assay [3], above 10 µM.

As for `Brc1ccc2nc(N3CCNCC3)c3nocc3c2c1` [Example 223, 8-bromo-4-(piperazin-1-yl)isoxazolo[3,4-c]quinoline], the EC50 in assay [1] and in assay [3] was below 10 µM in each case.

Regarding `CN1CCN(c2nc3ccc(C(F)(F)F)c(F)c3n3cnnc23)CC1` [Example 236, 9-fluoro-4-(4-methylpiperazin-1-yl)-8-(trifluoromethyl)-[1,2,4]triazolo[4,3-a]quinoxaline], the values for the EC50 in assay [1] and in assay [3] were below 10 µM and above 10 µM, respectively.

Take `Cc1nc2c3cc(Cl)ccc3nc(N3CCN4CCCC4C3)n2n1` (centres unmarked) [Example 245, 9-chloro-5-(hexahydropyrrolo[1,2-a]pyrazin-2(1H)-yl)-2-methyl-[1,2,4]triazolo[1,5-c]quinazoline]: the EC50 in assay [1] and in assay [3] was below 10 µM in each case.

`CN1CCN(c2nc3cc(Cl)ccc3c3cccnc23)CC1` [Example 249, 8-chloro-5-(4-methylpiperazin-1-yl)benzo[f][1,7]naphthyridine]: the EC50 in assay [1] and in assay [3] was below 10 µM in each case.

On to `CN1CCN(c2nc3cc(Cl)ccc3c3nccnc23)CC1` [Example 250, 8-chloro-5-(4-methylpiperazin-1-yl)pyrazino[2,3-c]quinoline], for which the EC50 in assay [1] and in assay [3] was below 10 µM in each case.
